From article PMC6278366, “Synthesis and Evaluation of Anticancer Activities of Novel C-28 Guanidine-Functionalized Triterpene Acid Derivatives” (Molecules, 2018)

How the values were obtained:
[1] = tested on: U937 (histiocytic lymphoma) cells; experiment: Cytotoxicity assay (7-AAD viability, flow cytometry), U937; format: cell-based, human; details: Homo sapiens, U-937, mean ± SE, at least three experiments in duplicate; viable cells; read-out: IC50 U937
Procedure: (§1) Cells (Jurkat, K562, U937, HeLa, HEK293 and normal Fibroblasts) were purchased from Russian Cell Culture Collection (Institute of Cytology of the Russian Academy of Sciences, Saint Petersburg, Russia) and cultured according to standard mammalian tissue culture protocols and sterile technique. Human cell lines HEK293 and HeLa were obtained from the HPA Culture Collections (Salisbury, UK). All cell lines used in the study were tested and shown to be free of mycoplasma and viral contamination.
(§2) Cells were maintained in RPMI 1640 (Jurkat, K562, U937) (Gibco, Thermo Fisher Scientific, Waltham, MA, USA) supplemented with 4 mM glutamine, 10% FBS (Sigma, Burlington, MA, USA) and 100 units/mL penicillin-streptomycin (Sigma). All types of cells were grown in an atmosphere of 5% CO2 at 37 °C. The cells were subcultures at 2–3 days intervals. Adherent cells (HEK293, HeLa, fibroblasts) were suspended using trypsin/EDTA and counted after they have reached 80% confluency. Cells were then seeded in 24 well plates at 5 × 10^4 cells per well and incubated overnight. Jurkat, K562, U937 cells were subcultured at 2 day intervals with a seeding density of 1 × 10^5 cells per 24 well plates in RPMI with 10% FBS.
(§3) Viability (Live/dead) assessment was performed by staining cells with 7-AAD (7-Aminoactinomycin D) (Biolegend, San Diego, CA, USA). Cells were treated of test compounds with six different concentrations (1, 5, 10, 15, 30 and 60 μM). After treatment, cells were harvested, washed 1–2 times with phosphate-buffered saline (PBS) and centrifuged at 400× g for 5 min. Cell pellets were resuspended in 200 μL of flow cytometry staining buffer (PBS without Ca^2+ and Mg^2+, 2.5% FBS) and stained with 5 μL of 7-AAD staining solutionfor 15 min at room temperature in the dark. Samples were acquired on NovoCyteTM 2000 FlowCytometry System (ACEA, San Diego, CA, USA) equipped with 488 nm argon laser. Detection of 7-AAD emission was collected through a 675/30 nm filter in FL4 channel.

[2] = tested on: normal human fibroblasts; experiment: Cytotoxicity assay (7-AAD viability, flow cytometry), normal fibroblasts; format: cell-based; details: Homo sapiens, Fibroblast, mean ± SE, at least three experiments in duplicate
Procedure: as §1
(§4) HEK293, HeLa cell lines and fibroblasts were cultured as monolayers and maintained in Dulbecco’s modified Eagle’s medium (DMEM, Gibco BRL, Waltham, MA, USA) supplemented with 10% foetal bovine serum and 1% penicillin-streptomycin solution at 37 °C in a humidified incubator under a 5% CO2 atmosphere.
as §2
as §3, with “Cells were treated of test compounds with six different concentrations (1, 5, 10, 15, 30 and 60 μM).” left out

[3] = tested on: HEK293 (embryonic kidney) cells; experiment: Cytotoxicity assay (7-AAD viability, flow cytometry), HEK293; format: cell-based, human; details: Homo sapiens, HEK293, mean ± SE, at least three experiments in duplicate; viable cells
Procedure: as §1, §4, §2, §3

[4] = tested on: Jurkat (T-lymphoblastic leukemia) cells; experiment: cells; format: cell-based; details: Homo sapiens, Jurkat, mean ± SE, at least three experiments in duplicate; viable cells; read-out: IC50 Jurkat
Procedure: as §1, §2, §3

[5] = tested on: K562 (chronic myeloid leukemia) cells; experiment: Cytotoxicity assay (7-AAD viability, flow cytometry), K562; format: cell-based, human; details: Homo sapiens, K562, mean ± SE, at least three experiments in duplicate; viable cells; read-out: IC50 K562
Procedure: as §1, §2, §3

[6] = tested on: HeLa (cervical cancer) cells; experiment: Cytotoxicity assay (7-AAD viability, flow cytometry), HeLa; format: cell-based, human; details: Homo sapiens, HeLa, mean ± SE, at least three experiments in duplicate; viable cells
Procedure: as §1, §4, §2, §3

| SMILES | IC50 [1] | IC50 [2] | IC50 [3] | IC50 [4] | melting point | IC50 [5] | IC50 [6] |
| --- | --- | --- | --- | --- | --- | --- | --- |
| CC(=O)O[C@H]1CC[C@@]2(C)C(CC[C@]3(C)C2CCC2C4C(C(C)C)CC[C@]4(C(=O)NCCN)CC[C@]23C)C1(C)C (stereo partly drawn) [Compound 5, 3β-N-(2-Aminoethyl)-3-O-acetyl-lupane-28-amide] | 1.9 ± 0.34 µM | 5.3 ± 0.27 µM | 4.8 ± 0.25 µM | 2.3 ± 0.11 µM | 120 to 122 °C | 2800 ± 230 nM | 3.9 ± 0.41 µM |
| CC(=O)O[C@H]1CC[C@@]2(C)C(CC[C@]3(C)C2CCC2C4C(C(C)C)CC[C@]4(C(=O)NCCCCN)CC[C@]23C)C1(C)C (stereo partly drawn) [Compound 6, 3β-N-(4-Aminobuthyl)-3-O-acetyl-lupane-28-amide] | 4.5 ± 0.43 µM | 8.3 ± 0.29 µM | 6.7 ± 0.21 µM | 7.7 ± 0.31 µM | 104 to 106 °C | 1800 ± 120 nM | 7.1 ± 0.18 µM |
| CC(=O)O[C@H]1CC[C@@]2(C)C(CC[C@]3(C)C2CCC2C4C(C(C)C)CC[C@]4(C(=O)NCCCN4CCN(CCCN)CC4)CC[C@]23C)C1(C)C (stereo partly drawn) [Compound 8a, 3β-N-{[3-(3-Aminopropyl)piperazinyl]propyl}-3-O-acetyl-lupane-28-amide] | 8.2 ± 0.13 µM | 7.3 ± 0.43 µM | 5.9 ± 0.14 µM | 4.5 ± 0.29 µM | 119 to 121 °C | 3000 ± 190 nM | 6.1 ± 0.38 µM |
